Experimental data as given in article PMC4180818 (Metabolic brain disease, 2013).

Target: human glutamine synthetase (Homo sapiens, UniProt P15104)
Assay: coupled pyruvate kinase/lactate dehydrogenase NADH assay
Format: biochemical

human glutamine synthetase, sequence (P15104 2-373): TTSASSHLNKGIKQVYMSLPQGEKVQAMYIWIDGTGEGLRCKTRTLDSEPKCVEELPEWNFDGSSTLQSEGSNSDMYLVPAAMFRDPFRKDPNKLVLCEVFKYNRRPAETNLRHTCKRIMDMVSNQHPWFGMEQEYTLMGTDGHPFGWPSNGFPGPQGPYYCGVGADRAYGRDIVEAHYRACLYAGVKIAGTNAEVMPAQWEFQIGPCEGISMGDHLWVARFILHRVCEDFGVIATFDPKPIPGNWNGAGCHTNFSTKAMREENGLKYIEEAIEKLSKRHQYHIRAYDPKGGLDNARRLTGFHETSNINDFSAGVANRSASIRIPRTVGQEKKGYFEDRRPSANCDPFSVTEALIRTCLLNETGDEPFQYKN

CS(=N)(=O)CCC(N)C(=O)O (mixture of isomers) [MSO, L-methionine-S,R-sulfoximine]
Ki: 1190 µM
